According to patent US20180360790A1, “NUTRITIONAL COMPOSITIONS AND INFANT FORMULAS TO PROMOTE MYELINATION IN THE BRAIN” (NESTEC S.A., priority 2015, published 2018):

Tested on: brain myelination (myelin water fraction)
Assay: Cross-sectional correlation of infant formula nutrient composition with brain myelination (mcDESPOT MRI, general linear model)
Assay type: in vivo, infants and young children
Details: single GLM of quantified formula nutrients and child age vs myelin water fraction; children up to 5 years; 5 most frequently used formulas
Procedure: This technique provides a quantitative measure, the Myelin Water Fraction (MWF), which is a surrogate marker of myelin content. When mapped as a function of time across early childhood, myelination trajectories can be generated. Infant formula composition: six infant formulas fed to infants participating in study were analyzed for their composition/level of myelin-relevant nutrients. […] Infants included in this study were drawn from a larger longitudinal study of normal brain and behavioral development: the Brown university Assessment of Myelination and Behavior Across Maturation (BAMBAM). To focus on neurotypical development, children with known potential risk factors for learning, neurologic, or psychiatric disorders were specifically excluded during recruitment and enrollment. […] Each infant was scanned using the mcDESPOT (multicomponent Driven Equilibrium Single Pulse Observation of T1 and T2) white matter imaging technique Deoni et al. (Magn. Reson. Med. 2008, 60:1372-1387), which provides a quantitative measure of the myelin water fraction (MWF) at each imaging point throughout the brain. […] Mean values for each region were then determined for each child and used for subsequent developmental analysis and trajectory modeling.

| Substance | nutritional drivers for myelination indicated by the final model |
| --- | --- |
| Iron | identified drivers |
| sphingomyelin | identified drivers |
